Measurements as given in PubChem BioAssay (NCI).
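Cultured in 96-well plates, cells were exposed to test compound for 48 hours across five concentrations. GI50 marks 50% less growth. Definition used: TGI = concentration required for complete inhibition of growth.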

Key:
Experiment in all cases: inhibition of tumour cell growth, NCI panel, 48 h
[1] = test system: NCI-H460 lung
[2] = test system: ACHN renal
[3] = test system: A498 renal
[4] = test system: SR leukemia
[5] = test system: K-562 leukemia
[6] = test system: TK-10 renal
[7] = test system: U251 CNS
[8] = test system: DU-145 prostate
[9] = test system: MDA-MB-231 breast
[10] = test system: UACC-62 melanoma

N#CCCCCCn1c2ccccc2c2c3c(c4c5ccccc5[nH]c4c21)C(=O)N(O)C3=O
GI50 [1]: 1.19 µM | TGI [1]: 4.96 µM | GI50 [2]: 0.851 µM | TGI [2]: 2.33 µM | GI50 [3]: 1.72 µM | TGI [3]: 4.94 µM | GI50 [4]: 0.434 µM | TGI [4]: > 100 µM | GI50 [5]: 1.07 µM | TGI [5]: > 100 µM | GI50 [6]: 2.2 µM | TGI [6]: 7.88 µM | GI50 [7]: 0.435 µM | TGI [7]: 1.57 µM | GI50 [8]: 1.06 µM | TGI [8]: 12.2 µM | GI50 [9]: 1.78 µM | TGI [9]: 5.32 µM

CCCN(CCC)c1c([N+](=O)[O-])cc(C(N)=O)cc1[N+](=O)[O-]
TGI [1]: > 100 µM | TGI [2]: > 100 µM | TGI [5]: > 100 µM | TGI [6]: > 100 µM | TGI [7]: > 100 µM

CC(C(=O)C(C)O[Si](c1ccccc1)(c1ccccc1)C(C)(C)C)=P(c1ccccc1)(c1ccccc1)c1ccccc1 (configuration not stated)
TGI [1]: 13.4 µM | TGI [2]: 14.6 µM | TGI [3]: 16.1 µM | TGI [5]: 12.3 µM | TGI [6]: 16.9 µM | TGI [7]: 14.1 µM | TGI [10]: 14.4 µM

O=C1CCC(=O)C(C(=O)CCC(=O)Nc2ccc(Cl)cc2)C1 (configuration not stated)
TGI [1]: > 100 µM | TGI [2]: > 100 µM | TGI [3]: > 100 µM | TGI [5]: > 100 µM | TGI [6]: > 100 µM | TGI [7]: > 100 µM | TGI [10]: > 100 µM

COc1ccc(OC)c(/C=C/C(=O)c2ccc(SC)cc2)c1
GI50 [1]: 3.82 µM | TGI [1]: 17.6 µM | GI50 [2]: 17.2 µM | TGI [2]: 38.4 µM | GI50 [3]: 13.7 µM | TGI [3]: 30.3 µM | GI50 [5]: 2.72 µM | TGI [5]: 7.44 µM | GI50 [6]: 17.9 µM | TGI [6]: 65.7 µM | GI50 [7]: 12.7 µM | TGI [7]: 26.9 µM | GI50 [10]: 15 µM | TGI [10]: 29.1 µM | GI50 [8]: 4.37 µM | TGI [8]: 18.3 µM | GI50 [9]: 54 µM | TGI [9]: > 100 µM

COC(=O)C([O][Ge]([CH3])([CH3])[CH3])c1ccccc1 (configuration not stated)
GI50 [1]: > 100 µM | TGI [1]: > 100 µM | GI50 [2]: > 100 µM | TGI [2]: > 100 µM | GI50 [3]: > 100 µM | TGI [3]: > 100 µM | GI50 [5]: > 100 µM | TGI [5]: > 100 µM | GI50 [6]: > 100 µM | TGI [6]: > 100 µM | GI50 [7]: > 100 µM | TGI [7]: > 100 µM | GI50 [10]: > 100 µM | TGI [10]: > 100 µM

COc1ccccc1NC(=O)NS(=O)(=O)c1ccccc1
TGI [1]: > 100 µM | TGI [2]: > 100 µM | TGI [6]: > 100 µM | TGI [7]: > 100 µM

CC1CCCc2c(CC3CC(=O)NC(=O)C3)nc(N)nc21 (configuration not stated)
TGI [3]: > 100 µM | TGI [4]: > 100 µM | TGI [5]: > 100 µM | TGI [6]: > 100 µM | TGI [7]: > 100 µM | TGI [10]: > 100 µM | TGI [8]: > 100 µM | TGI [9]: > 100 µM

COc1ccc2nc(NC(=O)C(=O)C(C#N)c3ccc(CC#N)cc3)sc2c1 (configuration not stated)
TGI [1]: > 100 µM | TGI [2]: > 100 µM | TGI [3]: > 100 µM | TGI [5]: > 100 µM | TGI [6]: > 100 µM | TGI [7]: > 100 µM | TGI [10]: > 100 µM

c1ccc2c(Nc3ccc4c(c3)OCO4)c3ccoc3nc2c1
GI50 [1]: 16.5 µM | TGI [1]: > 100 µM | GI50 [2]: 20.2 µM | TGI [2]: 70.3 µM | GI50 [3]: 14.4 µM | TGI [3]: 29.1 µM | GI50 [4]: 3.98 µM | TGI [4]: 29.3 µM | GI50 [5]: 3.27 µM | TGI [5]: 27.8 µM | GI50 [6]: 19.4 µM | TGI [6]: 42.9 µM | GI50 [7]: 17.6 µM | TGI [7]: 41.3 µM | GI50 [10]: 13.9 µM | TGI [10]: 33.1 µM | GI50 [8]: 14 µM | TGI [8]: 31.2 µM

C=CCN1C(=O)C/C(=C2/CCC(=O)N2CC=C)C1=O
TGI [1]: > 100 µM | TGI [2]: > 100 µM | TGI [3]: > 100 µM | TGI [4]: > 100 µM | TGI [5]: > 100 µM | TGI [6]: > 100 µM | TGI [7]: > 100 µM | TGI [10]: > 100 µM

O=C1/C(=C/c2ccc(Cl)cc2)COc2ccc(Br)cc21
TGI [1]: > 100 µM | TGI [2]: > 100 µM | TGI [3]: > 100 µM | TGI [5]: > 100 µM | TGI [6]: > 100 µM | TGI [7]: > 100 µM

c1cc[c]([Sn]([O]c2cccc3cccnc23)([c]2ccccc2)[c]2ccccc2)cc1
GI50 [1]: 0.0154 µM | TGI [1]: 0.0321 µM | GI50 [2]: 0.0168 µM | TGI [2]: 0.0332 µM | GI50 [5]: < 0.01 µM | TGI [5]: 0.0521 µM | GI50 [6]: 0.0229 µM | TGI [6]: 0.0693 µM | GI50 [7]: 0.0184 µM | TGI [7]: 0.0374 µM | GI50 [10]: < 0.01 µM | TGI [10]: 0.0188 µM

O=C(c1nc2ccccc2[nH]1)C1C(c2cccc([N+](=O)[O-])c2)C2CC3CCCCC3N2[C@@]12C(=O)Nc1cc(Cl)ccc12 (some centres not stated)
GI50 [2]: 2.23 µM | TGI [2]: 7.2 µM | GI50 [4]: 2.23 µM | TGI [4]: 9.25 µM | GI50 [5]: 2.6 µM | TGI [5]: > 100 µM | GI50 [6]: 2.12 µM | TGI [6]: 4.91 µM | GI50 [10]: 1.5 µM | TGI [10]: 3.2 µM | GI50 [8]: 1.55 µM | TGI [8]: 3.26 µM | GI50 [9]: 1.49 µM | TGI [9]: 3.17 µM

O=C1NC(=Nc2ccccc2Cl)SC1C(=O)Nc1ccc([N+](=O)[O-])cc1[N+](=O)[O-] (configuration not stated)
TGI [1]: > 100 µM | TGI [2]: > 100 µM | TGI [3]: > 100 µM | TGI [4]: > 100 µM | TGI [5]: > 100 µM | TGI [6]: > 100 µM | TGI [7]: > 100 µM | TGI [10]: > 100 µM

CN(C)/C=C/C(=O)c1cccc(C(=O)/C=C/N(C)C)n1
TGI [1]: > 100 µM | TGI [2]: > 100 µM | TGI [3]: > 100 µM | TGI [4]: > 100 µM | TGI [5]: > 100 µM | TGI [6]: > 100 µM | TGI [7]: > 100 µM | TGI [10]: > 100 µM

CC1CC(=O)CC[C@@H]1OCc1ccccc1 (some centres not stated)
TGI [1]: > 100 µM | TGI [2]: > 100 µM | TGI [3]: > 100 µM | TGI [5]: > 100 µM | TGI [6]: > 100 µM | TGI [7]: > 100 µM | TGI [10]: > 100 µM

Cc1nc(=O)n2c(c1C(=O)Nc1ccc(Cl)cc1)NCCC2
TGI [1]: > 100 µM | TGI [2]: > 100 µM | TGI [4]: > 100 µM | TGI [5]: > 100 µM | TGI [6]: > 100 µM | TGI [7]: > 100 µM | TGI [10]: > 100 µM

CC(=O)OC1CC2C(C)(C)C(=O)C=C[C@]2(C)C2CCC3(C)C(=CCC3[C@H](CO)C[C@H](O)C(=O)C(C)(C)O)[C@]12C (some centres not stated)
TGI [1]: 40.1 µM | TGI [2]: 50 µM | TGI [3]: 30.7 µM | TGI [4]: 86.2 µM | TGI [5]: > 100 µM | TGI [6]: 65.9 µM | TGI [7]: 31.5 µM | TGI [10]: 31.6 µM

COC(=O)CCCCCCCCC(=O)c1c(C)[nH]c(/C=C2\N=C(c3ccc[nH]3)C=C2OC)c1C
GI50 [1]: 3.57 µM | TGI [1]: > 100 µM | GI50 [2]: 20.6 µM | TGI [2]: > 72.7 µM | GI50 [3]: > 100 µM | TGI [3]: > 100 µM | GI50 [5]: 1.08 µM | TGI [5]: > 34.2 µM | GI50 [6]: > 100 µM | TGI [6]: > 100 µM | GI50 [7]: 10.9 µM | TGI [7]: > 100 µM | GI50 [10]: 10.7 µM | TGI [10]: > 82.9 µM | GI50 [8]: 32.1 µM | TGI [8]: > 100 µM | GI50 [9]: 7.83 µM | TGI [9]: > 100 µM
